Results on 45 compounds are retold here after patent US20140024662A1, “COMPOUNDS, SCREENS, AND METHODS OF TREATMENT” (Shanghai Institute of Organic Chemistry, priority 2006, published 2014).

“Also recorded” adds a separate entry of the source. Where two headings read alike, the source gives them in different places.

The test system of the experiment is FADD-deficient Jurkat cells. In words: necroptosis assay: FADD-deficient Jurkat cells treated with TNFα, cell viability. The class given is cell-based, human. To be noted: for EC50: effective concentration for half-maximum response, inhibition of necroptosis in FADD-deficient Jurkat cells treated with TNFα; for activity in the necroptosis assay, in words / Max Prot: FADD-deficient Jurkat cells treated with TNFα; for Max Prot: max viability obtained in the presence of a compound. From the text:
Herein we describe the structure activity analysis of Nec-5 analogs.

For orientation: EC50 means the concentration that produces a half-maximal response. As to `CSc1nc2sc3c(c2c(=O)n1-c1ccc2c(c1)OCO2)CCCC3` [Compound 59], the EC50 result was “inactive”.
For `CCc1cc2c(=O)n(-c3ccc(OC)cc3)c(SCC#N)nc2s1` [Compound 65], the EC50 entry was “inactive”.
Same read-out and setting: the entry for `Cc1sc2nc(SCC#N)n(-c3ccc(OCc4ccccc4)cc3)c(=O)c2c1C` [Compound 155] is “inactive”; for `COc1ccc(-n2c(SCC(N)=O)nc3sc4c(c3c2=O)CCCC4)cc1` [Compound 20] it is “inactive”.
Same read-out and setting: the entry for `CCSc1nc2sc3c(c2c(=O)n1-c1ccc(OC)cc1)CCCC3` [Compound 7] is “inactive”.
Take `CCSc1nc2sc(C)c(C)c2c(=O)n1-c1ccc(OC)cc1` [Compound 110]: the “activity in the necroptosis assay, in words” value (from here on “activity”) was “inactive” and the EC50 entry is “inactive”.
Consider `COc1ccc(-n2c(SCc3ccc([N+](=O)[O-])cc3)nc3sc4c(c3c2=O)CCCC4)cc1` [Compound 17], for which the EC50 entry is “inactive”.
Same read-out and setting: the entry for `COc1ccc(-n2c(SCCC#N)nc3sc(C)c(C)c3c2=O)cc1` [Compound 113] is “inactive”; for `CSc1nc2sc3c(c2c(=O)n1-c1ccc(OC(F)(F)F)cc1)CCCC3` [Compound 62] it is “inactive”; for `N#CCSc1nc2sc3c(c2c(=O)n1-c1ccc(OC(F)(F)F)cc1)CCCCC3` [Compound 168] it is “inactive”.
On to `N#CCSc1nc2sc3c(c2c(=O)n1-c1ccc(OC(F)(F)F)cc1)CCC3` [Compound 167], for which the “activity” value was “showed some, albeit greatly reduced, activity” and the “Max Prot” value is 70%. In addition, where the note is “read-out: EC50”, the EC50 came to 3.7 µM.
`Cc1ccc(-n2c(SCC#N)nc3sc(C)c(C)c3c2=O)cc1C` [Compound 137]: the “activity” value was “showed higher activity than compound (43)” and the “Max Prot” value turned out to be 90.7%. Moreover, where the note is “read-out: EC50”, the EC50 is 2.79 µM.
Take `CCc1sc2nc(SCC#N)n(-c3ccc(F)cc3)c(=O)c2c1C` [Compound 120]: the EC50 result is “inactive”.
Consider `Cc1sc2nc(SCC#N)n(-c3ccc(OC(F)(F)F)cc3)c(=O)c2c1C` [Compound 156], for which the “Max Prot” value came to 63%. In addition, under “read-out: EC50”, the EC50 stood at 3.7 µM.
As to `COc1ccc(-n2c(SCC#N)nc3sc4c(c3c2=O)CCN(C(C)C)C4)cc1` [Compound 78], the “activity” value is “essentially inactive” and the EC50 entry is “inactive”.
For the compound `Cc1sc2nc(SCC#N)n(-c3ccc4c(c3)OCO4)c(=O)c2c1C` [Compound 127], the “Max Prot” value is recorded as 100%. For the same compound, for the setting “read-out: EC50”, the EC50 is 1.65 µM.
As to `CSc1nc2sc3ccccc3c2c(=O)n1-c1ccc2c(c1)OCO2` [Compound 152], the EC50 result is “inactive”.
`N#CCSc1nc2sc3c(c2c(=O)n1-c1ccc(F)cc1)CCC3` [Compound 121]: the “Max Prot” value stood at 88.7%. The EC50 (read-out: EC50) worked out at 0.89 µM.
In the case of `CCCCSc1nc2sc3c(c2c(=O)n1-c1ccc(OC)cc1)CCC3` [Compound 95], the EC50 result is “inactive”.
As to `COc1ccc(-n2c(SCC(=O)Nc3ccccc3C(F)(F)F)nc3sc4c(c3c2=O)CCCC4)cc1` [Compound 27], the EC50 result was “inactive”.
For `COc1ccc(-n2c(SCC(C)O)nc3sc4c(c3c2=O)CCCC4)cc1` (stereo not drawn) [Compound 28], the EC50 entry was “inactive”.
The same measure, in the same setting: the entry for `CSc1nc2sc3c(c2c(=O)n1-c1ccc(OC(F)(F)F)cc1)CCC3` [Compound 182] is “inactive”; for `CSc1nc2sc3c(c2c(=O)n1-c1ccc(C)c(C)c1)CCC3` [Compound 142] it is “inactive”; for `COc1ccc(-n2c(SCC(=O)O)nc3sc4c(c3c2=O)CCCC4)cc1` [Compound 29] it is “inactive”.
As to `COc1ccc(-n2c(SC)nc3sc4c(c3c2=O)CCCC4)cc1` [Compound 6], the “activity” value is “reserves its activity to a significant extent” and the “Max Prot” value is on record as 71%. Also, for the setting “read-out: EC50”, the EC50 turned out to be 0.24 µM.
On to `CSc1nc2sc3c(c2c(=O)n1-c1ccc(F)cc1)CCC3` [Compound 125], for which the “Max Prot” value came to 95%. Moreover, the EC50 (read-out: EC50) amounted to 3 µM.
On to `COc1ccc(-n2c(SCC#N)nc3sc4c(c3c2=O)CCC(C)C4)cc1OC` (stereo not drawn) [Compound 166], for which the EC50 entry was “inactive”.
As for `CSc1nc2sc(C)c(C)c2c(=O)n1-c1ccc(F)cc1` [Compound 123], the “Max Prot” value came to 69.2%. For the setting “read-out: EC50”, the EC50 is 2.6 µM.
With `CCc1c(C)sc2nc(SC)n(-c3ccc(OC)cc3)c(=O)c12` [Compound 82], the EC50 entry was “inactive”.
Take `CCCCCCSc1nc2sc3c(c2c(=O)n1-c1ccc(OC)cc1)CCCC3` [Compound 11]: the EC50 result is “inactive”.
On to `COc1ccc(-n2c(SC)nc3sc4c(c3c2=O)CCN(C(C)C)C4)cc1` [Compound 92], for which the EC50 result is “inactive”.
For the compound `CCOc1ccc(-n2c(SCC#N)nc3sc4c(c3c2=O)CCCC4)cc1` [Compound 35], the “activity” value is listed as “retained some activity; also recorded: showed significant higher activity compared to compound (154)” and the “Max Prot” value was determined as 83.8%. For the setting “read-out: EC50”, the EC50 was 0.55 µM.
Regarding `N#CCSc1nc2sc3c(c2c(=O)n1-c1ccc(F)cc1)CCCC3` [Compound 39], the “activity” value is reported as “retained significant activity; also recorded: showed substantial activity; also recorded: decreased activity” and the “Max Prot” value is 85.1%. Further, the EC50 (read-out: EC50) was 0.24 µM.
In the case of `CCCc1sc2nc(SCCO)n(-c3ccc(OC)cc3)c(=O)c2c1C` [Compound 116], the EC50 entry was “inactive”.
Turning to `CCc1sc2nc(SCC#N)n(-c3ccc(OC)cc3)c(=O)c2c1C` [Compound 68], the “Max Prot” value was 86.8%. The EC50 (read-out: EC50) turned out to be 5.26 µM.
Regarding `COc1ccc(-n2c(SC[N+](=O)[O-])nc3sc4c(c3c2=O)CCC4)cc1` [Compound 102], the EC50 result was “inactive”.
In the case of `N#CCSc1nc2sc3c(c2c(=O)n1-c1ccc(Cl)c(Cl)c1)CCCC3` [Compound 44], the “Max Prot” value was determined as 39.0%. Where the note is “read-out: EC50”, the EC50 is 5.7 µM.
For `CSc1nc2sc3c(c2c(=O)n1-c1ccc(OCc2ccccc2)cc1)CCCC3` [Compound 52], the EC50 result was “inactive”.
Take `C#CCSc1nc2sc(CC)c(C)c2c(=O)n1-c1ccc(OC)cc1` [Compound 107]: the EC50 result is “inactive”.
On the same count and under the same terms, the entry for `CCc1sc2nc(SC)n(-c3ccc(F)cc3)c(=O)c2c1C` [Compound 124] is “inactive”.
With `CCc1c(C)sc2nc(SC)n(-c3ccc4c(c3)OCO4)c(=O)c12` [Compound 131], the “activity” value was “inactive” and the EC50 entry is “inactive”.
As for `CCCCCCCCCCCCCCc1sc2nc(SCC#N)n(-c3ccc(OC)cc3)c(=O)c2c1C` [Compound 71], the half-maximal effective concentration (EC50) result is “inactive”.
On to `COc1ccc(-n2c(SC)nc3sc4c(c3c2=O)CCC4)cc1` [Compound 87], for which the “activity” value is “displayed higher activity than each change separately enacted” and the “Max Prot” value worked out at 97.0%. Besides, for the setting “read-out: EC50”, the EC50 came to 0.24 µM.
For `Cc1ccc(-n2c(SCC#N)nc3sc4c(c3c2=O)CCC4)cc1C` [Compound 139], the “activity” value was “essentially inactive” and the EC50 result is “inactive”.
With `Cc1sc2nc(SCC#N)n(-c3ccc(F)cc3)c(=O)c2c1C` [Compound 119], the “Max Prot” value turned out to be 87.6%. Moreover, the EC50 (read-out: EC50) was determined as 4.43 µM.
